The record followed here is patent US20230257703A1, “NANOSCALE POLYMERIC MICELLAR SCAFFOLDS FOR RAPID AND EFFICIENT ANTIBODY PRODUCTION” (Iowa State University Research Foundation, Inc., priority 2020, published 2023).

Experiment [1] deals with splenic B cells of Ighel Tg mice (BCRs specific to HEL). Nature of the experiment: CFSE B cell proliferation and viability, splenic cells of Ighel Tg mice. The experiment is classed as cell-based. As to conditions: 10 µg/mL, 4 days.
Experiment [2] concerns murine splenic B cells (CD19+). The experiment is described as follows: Nur77 expression in B cells by flow cytometry (BCR engagement). In kind it is cell-based, mice. As to conditions: micelle-Ag 10 µg/mL each component, LPS 0.5 µg/mL, anti-IgM F(ab′)2 10 µg/mL. The text has this:
B cell proliferation was detected using in vitro labeling of cells with CFSE and analysis by flow cytometry. Distinct generations of proliferating cells can be monitored by dilutions of CFSE stain on the cells as viewed on the flow cytometry plots. For the flow cytometry procedure, the cells were transferred into polystyrene FACS tubes and labelled with Zombie Aqua dye for tracking viable cells post-stimulation using manufacturer’s instructions. […] For intracellular staining of Nur77 antibody, following surface staining, cells were washed with PBS and then fixed with 4% p-formaldehyde. After washing the cells again with PBS, 0.1% Triton X-100 was used for permeabilization, and following that, Nur77 Ab at a 1:50 dilution was used to stain the cells. After the staining, cells were washed in FACS buffer to remove excess dye and samples were fixed prior to analysis. The flow cytometry data was collected on FACSCanto II (BD Bioscience, NJ) and analyzed using FlowJo (FlowJo LLC, Ashland, CA).

On to hen egg white lysozyme [HEL], for which, in experiment [1], the “B cell proliferation (CFSE^lo peaks)” value is given as “small peak with some proliferation”.

With lipopolysaccharide [LPS], the Nur77 induction result in experiment [2] is given as “did not trigger Nur77 induction”.
